Data on three compounds can be found in US11293870B2, “Vital stain” (Mie University, priority 2013, dated 2022).

Entries after “also recorded” stand apart in the source; their conditions may differ. Read-outs that look alike come from different tables or passages of the source.

The test system of data set [1] is MDCK-GFP-Ras^V12 cells mixed with MDCK normal cells. In words: In vitro assay of MDCK-Ras^V12 cancerized cell small aggregates as a very early cancer model. Type of data set: cell-based, canine.
Method: The MDCK normal cells were cultured in a 10 cm dish, and the MDCK-GFP-Ras^V12 cells were cultured in a 6 cm dish. The culture solution used for the MDCK normal cells was DMEM (containing Phenol Red)+10% FBS+penicillin/streptomycin.
The solution used for the MDCK-GFP-Ras^V12 cells was DMEM (containing Phenol Red)+10% FBS+penicillin/streptomycin+Zeocin (400 μg/ml)+blasticidin (5 μg/ml). […] The seeding was carried out using a DMEM+10% FBS+penicillin/streptomycin culture solution, to 1.0 to 3.0×10^4 cells per well of the 96-well dish. Tetracycline at a concentration of 2 μg/ml was added to the culture solution after 4 days when seeding was to 1.0×10^4 or after 1 day when seeding was to 3.0×10^4, and GFP-Ras^V12 was expressed, forming cancerized cell small aggregates among the MDCK normal cells (NPL 3). After 18 to 36 hours, the cells in each of the wells were rinsed 3 times with 200 μl of PBS, and then the Prestwick Chemical Library compounds and the Ministry of Health, Labour and Welfare-approved food additives, each diluted to 1 μM with a 100 μl volume of PBS, were added to the respective wells and taken up by the cells for 5 minutes at room temperature. They were then rinsed 3 times with 200 μl of PBS, and in certain cases further rinsed once with 100 μl of DMEM without Phenol Red, and observed under a multiphoton laser microscope.
Data set [2] deals with epithelial cells/adenocytes and connective tissue/capillaries. In words: Preferential staining of epithelial cells/adenocytes or connective tissue/capillaries. The settings on record: 5 mg/ml for curcumin, 1 mg/ml for all other dyes. The format is in vivo, mouse.
Method: A metal ring (outer diameter: 16 millimeters, inner diameter, 6 millimeters) was placed on a laboratory stage, and a rapid bonding adhesive (AronAlpha) was coated over the entire periphery of the ring surface on one side. Forceps were used to hold the rapid bonding adhesive-coated metal ring with the adhesive-coated surface facing downward, and it was set on the pronase-treated mucosal surface. During a period of about 5 minutes, the metal ring became anchored to the mucosa with the rapid bonding adhesive, and the region where the dye compound was to be applied was rinsed with PBS.
In order to avoid drying of the mucosal surface, a curcumin stock solution or sulfuretin stock solution diluted with physiological saline (PBS) (see Tables 1 to 3 for the dilution factors) was added dropwise onto the pronase-treated mucosal surface, and after allowing it to stand for 1 minute, it was rinsed 3 times with PBS, a cover glass was placed over the metal ring, and the objective lens of a multiphoton laser microscope (FV1000 MPE by Olympus Corp.) was brought near to the top of the cover glass for image observation.
The procedure from administration of the dye compound to observation was conducted as described above under “Evaluation of stainability” (same hereunder). Also, the administered concentration of dye to the mucosal surface was 5 mg/ml for curcumin as Dye No. 1, and 1 mg/ml for all of the other dyes.
Another data set relates to Pluripotent hepatocytes. Briefly: Undifferentiated cell staining of pluripotent hepatocytes. The format is cell-based. The source says:
Pluripotent stem cells such as iPS cells, ES cells or tissue-derived stem cells are considered promising for application and development in regenerative medicine, and for example, when a cell population is to be formed from iPS cells, differentiated into tissue cells that are destined to be transplanted, it is currently the case that iPS cell-derived differentiation-induced tissue cell populations partially contain undifferentiated cells that have not completely differentiated to the desired tissue cells, cells that have differentiated to cells other than the desired tissue cells, and the original iPS cells that have undergone essentially no differentiation. It has been pointed out that when such undifferentiated cells or original iPS cells are transplanted as is into the body, they can potentially become cancerated in the future. Thus, when an iPS cell-derived differentiation-induced tissue cell population is to be used for transplantation, undifferentiated cells or original iPS cells remaining in the transplanted cell population are preferably identified and confirmed, and also eliminated.

For data set [3] the following is noted: cited from earlier work.
In a further data set the test system is Large intestine. In words: Evaluation of dye compound stainability under multiphoton laser microscope, large intestine mucosal surface. Type of data set: in vivo. As to conditions: mucosal surface of mouse large intestine; 5 mg/ml for curcumin, 1 mg/ml for other dyes. The procedure: Drinking water containing 2% (w/v) dextran sodium sulfate (DSS) was given to 8-week-old C57B6 mice (male, approximately 20 g) for 7 days. After intraperitoneal injection of 0.2 ml of 5% chloral hydrate for anesthesia, the mouse abdominal wall was incised vertically to about 1 cm, and the gastrointestinal tract was raised over the abdominal wall to about 1 cm. Blood flow to the gastrointestinal tract was maintained during this time by the blood vessel flowing into the mesenteric attachment site. The gastrointestinal tract was incised vertically to about 1 cm on opposite side of the mesenteric attachment site, including the tunica muscularis and mucosa. The opposite side of the mesenteric attachment site was incised in order to prevent severance and damage of the blood vessel and minimize bleeding. When the incision site of the gastrointestinal tract was opened vertically, the mucosal surface of the gastrointestinal tract, as the food channel, became visible. When food digestion products were present they were wiped off with tissue paper.
In order to more clearly observe the gastrointestinal tract mucosal surface, a 1% pronase solution was dropped onto the mucosal surface and was allowed to stand still for 15 minutes. This pronase treatment removed the mucus from the mucosal surface, rendering the cell structure more easily visible. […]

Data set [4] has as its system cancer lesion site versus normal mucosa of large intestine. Briefly: Comparison of staining patterns in normal site and cancer tumor site of large intestine. The settings on record: for Staining of cancer lesion sites compared with normal mucosa: Example 1, regardless of pronase treatment of the mucosal surface; for Staining of cancer lesion site compared with normal mucosa: Example 3. Type of data set: in vivo, mouse. Here is the method: Drinking water containing 2% (w/v) dextran sodium sulfate (DSS) was given to 8-week-old C57B6 mice (male, approximately 20 g) for 7 days. After intraperitoneal injection of 0.2 ml of 5% chloral hydrate for anesthesia, the mouse abdominal wall was incised vertically to about 1 cm, and the gastrointestinal tract was raised over the abdominal wall to about 1 cm. Blood flow to the gastrointestinal tract was maintained during this time by the blood vessel flowing into the mesenteric attachment site. The gastrointestinal tract was incised vertically to about 1 cm on the opposite side of the mesenteric attachment site, including the tunica muscularis and mucosa. The opposite side of the mesenteric attachment site was incised in order to prevent severance and damage of the blood vessel and minimize bleeding. When the incision site of the gastrointestinal tract was opened vertically, the mucosal surface of the gastrointestinal tract, as the food channel, became visible. When food digestion products were present they were wiped off with tissue paper. In order to more clearly observe the gastrointestinal tract mucosal surface, a 1% pronase solution was dropped onto the mucosal surface and was allowed to stand still for 15 minutes. This pronase treatment removed the mucus from the mucosal surface, rendering the cell structure more easily visible. Next, the pronase was removed from the mucosal surface and rinsed with physiological saline (PBS). A metal ring (outer diameter: 16 millimeters, inner diameter, 6 millimeters) was placed on a laboratory stage, and a rapid bonding adhesive (AronAlpha) was coated over the entire periphery of the surface on one side. Forceps were used to hold the rapid bonding adhesive-coated metal ring with the adhesive-coated surface facing downward, and it was set on the pronase-treated mucosal surface. During a period of about 5 minutes, the metal ring became anchored to the mucosa with the rapid bonding adhesive, and the region where the dye compound was to be applied was rinsed with PBS. […] FIG. 32 is a drawing for illustration of a stainability evaluation step for the aforementioned dye compounds. […] Z stack image). […] Both of the staining photographs of the normal site and cancer tumor site were taken under the same conditions.

The next data set deals with mucosal surfaces. Briefly: Photon dose necessary to obtain fluorescent images of dye-coated mucosal surfaces. The settings on record: mucosal surfaces coated with dye. The format is in vivo, mouse.
The test system of data set [5] is mouse bladder epithelial cells. Briefly: Multiphoton laser microscope imaging of stained bladder epithelial cells. The settings on record: laser power of 3%.
Data set [6] concerns mouse tracheal epithelial cells. In words: Multiphoton laser microscope imaging of stained tracheal epithelial cells. As to conditions: laser power of 3%.
The subject of data set [7] is human gastric mucosa (normal site and stomach cancer site). Briefly: Staining of surgically excised fresh human gastric mucosa. As to conditions: laser power of 1%. The source says: Similar staining also occurred with surgically excised fresh human gastric mucosa. […] The centers of the circular structures are the exits of the fundic glands. It was thus possible to confirm the characteristic of normal tissue whereby epithelial cells arrange in a circular manner without disparate sizes. […] The blackened elliptical portions in each cell are the nuclei.

[8] abbreviates: without pronase treatment, cancer 2 to 4 millimeters in diameter.

Regarding `O=C([O-])c1c(Cl)c(Cl)c(Cl)c(Cl)c1-c1c2cc(Br)c(=O)c(Br)c-2oc2c(Br)c([O-])c(Br)cc12.[Na+].[Na+]` [Red #104, phloxine], the “Cancer cell staining intensity relative to normal cell staining intensity” value in data set [1] (FIG. 19) worked out at 6.7 times. In addition, the “Staining of GFP-Ras^V12 positive cancerized cells versus MDCK normal cells” value in [1] (Ministry of Health, Labour and Welfare-approved food additives, 1 mg/ml, excitation 750, 800, 850, 900 nm, red fluorescence) is on record as “labeled GFP-Ras^V12-positive cancerized cell small aggregates more intensely than normal cells; also recorded: All GFP-Ras^V12 positive cells stained with Red #104”. For the same compound, the “Cell group preferentially stained (epithelial cells/adenocytes or connective tissue/capillaries)” value in data set [2] is given as “preferentially stained epithelial cells/adenocytes”. Further, the “Staining of pluripotent hepatocytes” value in the data set on Pluripotent hepatocytes is “exhibit undifferentiated cell staining”. In addition, in [3] (Mouse, Intra-abdominal), the LD50 is recorded as 310 mg/kg.
In the case of `O=C1/C(=C/c2ccc(O)c(O)c2)Oc2cc(O)ccc21` [Sulfuretin], the “Excitation by multiphoton laser and brightness of image” value with Large intestine is “strongly excited by a multiphoton laser and provided bright images”. In addition, the “Staining of cancer lesion sites compared with normal mucosa” value in data set [4] is listed as “stained cancer lesion sites much more intensely than normal mucosa”. The “Staining of cancer lesion site compared with normal mucosa” value in data set [4] (setting [8]) is reported as “stained the cancer lesion site significantly more intensely than the normal mucosa”. Moreover, the “Cell group preferentially stained (epithelial cells/adenocytes or connective tissue/capillaries)” value in data set [2] was “intensely stained epithelial cells/adenocytes and faintly stained connective tissue/capillaries”. In addition, in the data set with mucosal surfaces, the “Photon dose necessary to obtain fluorescent images compared to non-staining” value is 4%. Also, the LD50 in data set [3] (mouse, in vivo, po) is 300 mg/kg.
As for `COc1cc(/C=C/C(=O)CC(=O)/C=C/c2ccc(O)c(OC)c2)ccc1O` [curcumin], in the data set on Large intestine, the “Excitation by multiphoton laser and brightness of image” value was “strongly excited by a multiphoton laser and provided bright images”. Further, the “Staining of cancer lesion sites compared with normal mucosa” value in data set [4] was “stained cancer lesion sites much more intensely than normal mucosa”. Also, the “Staining of cancer lesion site compared with normal mucosa” value in data set [4] (after 15 minutes treatment with 1% pronase MS) and in [4] (setting [8]) was “stained the cancer lesion site significantly more intensely than the normal mucosa” in each case. For the same compound, the “Cell group preferentially stained (epithelial cells/adenocytes or connective tissue/capillaries)” value in data set [2] is “intensely stained epithelial cells/adenocytes and faintly stained connective tissue/capillaries”. In addition, the “Photon dose necessary to obtain fluorescent images compared to non-staining” value in the data set with mucosal surfaces was determined as 3%. In addition, the “Image quality of stained cells” value in [5] was “an image with sufficient brightness and contrast for diagnosis was obtained”; in data set [6] it was “an image with sufficient brightness and contrast for diagnosis was obtained”. The “Staining of normal gastric mucosa site” value in data set [7] is recorded as “the circularly arranged normal epithelial cells are stained”. The “Staining of stomach cancer site” value in [7] was “cancer cells are stained”.

What is called LD50 is the dose at which mortality reaches 50%.
